PubChem BioAssay (NCI)
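Five concentrations, 48 hours, 96-well plates. GI50 is the concentration that inhibits growth by half. TGI denotes the concentration required for complete inhibition of growth.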

Assays:
Experiment in all cases: NCI anticancer screen, dose series, 48 h
A498 renal = tested on: A498 renal
DLD-1 colon = tested on: DLD-1 colon
DMS 114 small cell lung = tested on: DMS 114 small cell lung
DMS 273 small cell lung = tested on: DMS 273 small cell lung
HL-60(TB) leukemia = tested on: HL-60(TB) leukemia
MCF7 breast = tested on: MCF7 breast
RPMI-8226 leukemia = tested on: RPMI-8226 leukemia
DU-145 prostate = tested on: DU-145 prostate
MDA-MB-435 = tested on: MDA-MB-435
PC-3 prostate = tested on: PC-3 prostate
SR leukemia = tested on: SR leukemia
LXFL 529 NSCLC = tested on: LXFL 529 NSCLC

| Compound | TGI (A498 renal) | TGI (DLD-1 colon) | TGI (DMS 114 small cell lung) | TGI (DMS 273 small cell lung) | TGI (HL-60(TB) leukemia) | TGI (MCF7 breast) | TGI (RPMI-8226 leukemia) | GI50 (A498 renal) | GI50 (DU-145 prostate) | TGI (DU-145 prostate) | GI50 (HL-60(TB) leukemia) | GI50 (MCF7 breast) | GI50 (MDA-MB-435) | TGI (MDA-MB-435) | GI50 (PC-3 prostate) | TGI (PC-3 prostate) | GI50 (RPMI-8226 leukemia) | GI50 (SR leukemia) | TGI (SR leukemia) | TGI (LXFL 529 NSCLC) |
| --- | --- | --- | --- | --- | --- | --- | --- | --- | --- | --- | --- | --- | --- | --- | --- | --- | --- | --- | --- | --- |
| Nc1ccc2c(c1)C1=NNC(=O)CC1C2 (centres undefined) | > 100 µM | > 100 µM | > 100 µM | > 100 µM | > 100 µM | > 31.6 µM | > 100 µM |  |  |  |  |  |  |  |  |  |  |  |  |  |
| COc1cc(-c2n/c(=C\c3c(O)[nH]c4ccc(Cl)cc34)cc3c2=Nc2ccccc2-3)cc(OC)c1OC | 4.71 µM |  |  |  | 38.1 µM | 1.38 µM | 19.7 µM | 1.76 µM | 0.655 µM | 2.59 µM | 10.7 µM | 0.316 µM | 2.08 µM | 5.15 µM | 1.82 µM | 5.92 µM | 2.68 µM | 0.445 µM | 4.8 µM |  |
| CN1CCN(c2ccc(-c3ccc4ncc(C#N)c(Nc5ccc(F)c(Cl)c5)c4c3)cc2)CC1 | 12.4 µM |  |  |  | 4.45 µM | 14.9 µM | 5.5 µM | 2.43 µM | 0.872 µM | 4.11 µM | 1.68 µM | 3.18 µM | 1.89 µM | 3.68 µM | 2.08 µM | 7.92 µM | 1.92 µM | 2.01 µM | 6.82 µM |  |
| [N-]=[N+]=Nc1ccc(NCCCCCC(=O)ON2C(=O)CCC2=O)c([N+](=O)[O-])c1 |  |  |  |  | > 100 µM | > 100 µM |  |  |  | > 100 µM |  |  |  | > 100 µM |  | > 100 µM |  |  |  |  |
| C=C(C)[C@@H]1CC[C@]2(C)CC[C@]3(C)[C@H](CC[C@@H]4[C@@]5(C)CC[C@H](OC(=O)c6ccccc6)C(C)(C)[C@@H]5CC[C@]43C)[C@@H]12 | > 100 µM |  |  |  | > 100 µM | > 100 µM | > 100 µM |  |  | > 100 µM |  |  |  | > 100 µM |  | > 100 µM |  |  | > 100 µM |  |
| O=C(N/C(=C\c1ccccc1[N+](=O)[O-])c1nc2ccccc2[nH]1)c1ccccc1 |  | > 100 µM |  | > 100 µM |  |  |  |  |  |  |  |  |  |  |  |  |  |  | > 100 µM | > 100 µM |
| COc1ccc(NS(=O)c2ccc(-c3ccccc3)cc2)cc1 (centres undefined) |  |  |  |  | > 100 µM | > 100 µM | > 100 µM |  |  | > 100 µM |  |  |  | > 100 µM |  | > 100 µM |  |  | > 100 µM |  |
| Cc1nc(Cl)c(Cl)c(Cl)n1 | 4.81 µM |  |  |  | 0.0553 µM | 1.91 µM | 0.203 µM |  |  | 9.24 µM |  |  |  | 1.71 µM |  | 0.988 µM |  |  |  |  |
| O=c1[nH][nH]c(=O)[nH]1 |  | > 100 µM |  | > 100 µM | > 100 µM |  | > 100 µM |  |  |  |  |  |  |  |  |  |  |  | > 100 µM |  |
| CC1SC(c2ccccc2)N(Nc2c3ccccc3nc3ccccc23)C1=O (centres undefined) |  | > 100 µM | > 100 µM | > 100 µM |  |  | > 100 µM |  |  |  |  |  |  |  |  |  |  |  | > 100 µM | > 100 µM |
| CNC(C)Cc1ccccc1O (centres undefined) | > 100 µM | > 100 µM | > 100 µM | > 100 µM | > 100 µM |  | > 100 µM |  |  |  |  |  |  |  |  |  |  |  | > 100 µM | > 100 µM |
| CO[C@H]1[C@@H](O)[C@@H](C)O[C@@H](O[C@H]2CC[C@@]3(C)[C@H](CC[C@@H]4[C@@H]3CC[C@]3(C)[C@@H](C5=CC(=O)OC5)CC[C@]43O)C2)[C@@H]1O | 0.813 µM |  |  |  | 0.0119 µM | 1.1 µM | 25 µM |  |  | 0.00729 µM |  |  |  | 0.0693 µM |  | 0.0171 µM | 0.00781 µM |  | 0.483 µM |  |
| CCn1nc(C)c2c1C(=O)NC(C)C(=O)N2 (centres undefined) | > 100 µM |  |  |  |  |  |  |  |  | > 100 µM |  |  |  | > 100 µM |  | > 100 µM |  |  |  |  |
| CN(C)CCNc1ccc2ncnc3c2c1C(=O)c1ccccc1-3 | 9.25 µM |  |  |  | > 23.6 µM | 2.57 µM | 3.83 µM |  |  |  |  |  |  | 6.21 µM |  | 7.21 µM |  |  | 0.915 µM |  |
